# Data: patent US8481546B2, “CGRP receptor antagonist” (Bristol-Myers Squibb Company, priority 2010, dated 2013)
# What was measured:
# [1] = target: T1, CGRP receptor endogenously expressed in SK-N-MC cell membranes (Homo sapiens, UniProt O60894+Q16602); experiment: Competition for [125I]CGRP binding (radioligand competition assay); details: 15 pM [125I]CGRP, read-out: mean Ki, inhibition of [125I]CGRP binding
# T1 construct: endogenous in cells; host or cells: SK-N-MC human neuroblastoma cells (membrane homogenate or attached whole cells)
# Method: SK-N-MC cell membrane homogenate serves as the receptor source. Human neuroblastoma SK-N-MC cells are used for in vitro assays because they endogenously express the CGRP receptor with an identical sequence to the cloned human CGRP receptor (Aiyar et al., 2001). Cells are grown at 37° C. in 5% CO2 in medium consisting of MEM with Earle's salts and L-glutamine supplemented with 10% fetal bovine serum to reach confluence. The cells are harvested by rinsing twice with phosphate-buffered saline and are incubated for 5-10 minutes at 4° C. in hypotonic lysis buffer consisting of 10 mM Tris (pH 7.4) and 5 mM EDTA. The cells are collected and transferred to polypropylene tubes and homogenized using a polytron. Homogenates are centrifuged at 32,000×g for 30 min. The pellets are resuspended in cold hypotonic lysis buffer with 0.1% mammalian protease inhibitor cocktail and assayed for protein concentration. The membrane homogenate is then aliquoted and stored at −80° C. until the day of assay.
# The ability of Compound I to compete for the radiolabeled ([^125I]CGRP, Amersham Biosciences) endogenous peptide human alpha CGRP (hαCGRP) is measured using a radioligand competition assay. Compound I is first solubilized in and carried through serial dilutions using 100% DMSO. […] Protein bound radioactivity is measured using a gamma scintillation counter. […]
# [2] = target: T2, CGRP receptor in attached whole SK-N-MC cells (Homo sapiens, UniProt O60894+Q16602); experiment: Cellular functional assay, cyclic AMP assay; assay type: cell-based; details: 0.3 nM CGRP
# T2 construct: endogenous in cells; host or cells: SK-N-MC human neuroblastoma cells (membrane homogenate or attached whole cells)
# Method: The CGRP receptor complex is coupled to the Gs class of G proteins. Binding of CGRP to this complex leads to the production of cyclic AMP (adenosine 3′S′-cyclic monophosphate) via Gs-dependent activation of adenylate cyclase.
# Functional antagonism by Compound I is determined by measuring its ability to inhibit CGRP-stimulated formation of cyclic AMP in attached whole SK-N-MC cells. SK-N-MC cells are incubated at room temperature with 0.3 nM CGRP alone for 30 minutes, or pre-incubated with various concentrations of Compound I for 15 minutes before the addition of 0.3 nM CGRP and then further incubated for 30 minutes. The Cyclic AMP (cAMP) produced is extracted using the “Lysis Reagent” and its concentration is determined by radioimmunoassay using RPA559 cAMP SPA Direct Screening Assay Kit (Amersham Pharmacia Biotech). IC50 values are defined as the concentration of compound required to inhibit 50% of 0.3 nM CGRP-stimulated cAMP production. Ymax is defined as maximal percent inhibition of 0.3 nM CGRP-stimulated cAMP production.
# [3] = target: T3, CGRP receptor (CGRP-stimulated cAMP production) (Homo sapiens, UniProt O60894+Q16602); experiment: Schild analysis of CGRP-stimulated cAMP production; assay type: cell-based
# T3 construct: endogenous in cells; host or cells: SK-N-MC human neuroblastoma cells (membrane homogenate or attached whole cells)
# Method: Schild analysis is used to characterize the nature of the antagonism of Compound I. The dose response of CGRP-stimulated cAMP production is generated either with CGRP alone, or with CGRP in the presence of various concentrations of Compound I. Specifically, dose-dependent cAMP stimulation by CGRP is assayed with or without five different concentrations of Compound I. The concentration of Compound I is plotted on the X-axis against the dose ratio minus 1 on the Y-axis (dose ratio is defined as the EC50 of CGRP in the presence of Compound I divided by the EC50 of CGRP alone). Linear regression is then performed with both X and Y axes log-transformed. […] Kb is the antagonist dissociation constant.
# Solution state stability = assay type: physicochemical
# Method: The solution state stability of Compound I was evaluated as a function of temperature, pH, high intensity light (HIL), buffer concentration, and drug concentration.
# Succinate buffer was used for all solutions. For samples exposed to light, a photostability chamber was used in accordance with ICH guidelines (1.2 million lux hour exposure to visible light and 200 watt hour/m^2 to UV). Analyses were performed at 4, 8 and 12 weeks.
# [4] = Sample A: pH 4, 40 C, 0.1 mg/ml drug, 0.05 M succinate buffer
# [5] = Sample B: pH 5, 25 C, 0.1 mg/ml drug, 0.05 M succinate buffer
# [6] = Sample C: pH 5, 25 C/light, 0.1 mg/ml drug, 0.05 M succinate buffer
# [7] = Sample D: pH 5, 60 C, 0.1 mg/ml drug, 0.05 M succinate buffer
# [8] = Sample E: pH 5, 40 C, 0.1 mg/ml drug, 0.05 M succinate buffer
# [9] = Sample F: pH 6, 40 C, 0.1 mg/ml drug, 0.05 M succinate buffer
# [10] = Sample G: pH 4, 40 C, 40 mg/ml drug, 0.05 M succinate buffer
# [11] = Sample H: pH 5, 40 C, 40 mg/ml drug, 0.05 M succinate buffer
# [12] = Sample I: pH 6, 40 C, 40 mg/ml drug, 0.05 M succinate buffer
# [13] = Sample J: pH 5, 40 C, 0.1 mg/ml drug, 0.01 M succinate buffer
smiles,measurement,setting,value
"Cc1cc(C[C@@H](NC(=O)N2CCC(c3cc4ccccc4[nH]c3=O)CC2)C(=O)N2CCN(C3CCN(C)CC3)CC2)cc2cn[nH]c12 [Compound I, (R)—N-(3-(7-methyl-1H-indazol-5-yl)-1-(4-(1-methylpiperidin-4-yl)piperazin-1-yl)-1-oxopropan-2-yl)-4-(2-oxo-1,2-dihydroquinolin-3-yl)piperidine-1-carboxamide]",Ki,[1],0.0227 nM
same,"Ymax, maximal percent inhibition of CGRP-stimulated cAMP production",[2],95.4 (±1.3) %
same,IC50,"[2]; read-out: IC50, inhibition of CGRP-stimulated cAMP production",0.0386 ± 0.0042 nM
same,Schild analysis mean slope,[3],1.02±0.04
same,Kb,"[3]; Schild analysis, read-out: mean antagonist dissociation constant Kb",0.0215 ± 0.0094 nM
same,Area percent of Deg A at twelve weeks,Solution state stability; [4],2.0 area percent
same,Area percent of Deg C at twelve weeks,Solution state stability; [4],10.5 area percent
same,Area percent of Deg A at twelve weeks,Solution state stability; [5],.5 area percent
same,Area percent of Deg B at twelve weeks,Solution state stability; [5],0.1 area percent
same,Area percent of Deg A at twelve weeks,Solution state stability; [6],16.9 area percent
same,Area percent of Deg B at twelve weeks,Solution state stability; [6],2.9 area percent
same,Area percent of Deg C at twelve weeks,Solution state stability; [6],2.8 area percent
same,Area percent of Deg D at twelve weeks,Solution state stability; [6],5.2 area percent
same,Area percent of Deg E at twelve weeks,Solution state stability; [6],1.0 area percent
same,Area percent of Deg F at twelve weeks,Solution state stability; [6],7.7 area percent
same,Area percent of Deg I at twelve weeks,Solution state stability; [6],5.7 area percent
same,Area percent of Deg A at twelve weeks,Solution state stability; [7],1.2 area percent
same,Area percent of Deg C at twelve weeks,Solution state stability; [7],55.0 area percent
same,Area percent of Deg A at twelve weeks,Solution state stability; [8],1.9 area percent
same,Area percent of Deg B at twelve weeks,Solution state stability; [8],0.2 area percent
same,Area percent of Deg E at twelve weeks,Solution state stability; [8],.1 area percent
same,Area percent of Deg A at twelve weeks,Solution state stability; [9],.4 area percent
same,Area percent of Deg B at twelve weeks,Solution state stability; [9],0.1 area percent
same,Area percent of Deg E at twelve weeks,Solution state stability; [9],.1 area percent
same,Area percent of Deg A at twelve weeks,Solution state stability; [10],4.9 area percent
same,Area percent of Deg E at twelve weeks,Solution state stability; [10],3.5 area percent
same,Area percent of Deg G at twelve weeks,Solution state stability; [10],0.1 area percent
same,Area percent of Deg H at twelve weeks,Solution state stability; [10],.1 area percent
same,Area percent of Deg J at twelve weeks,Solution state stability; [10],0.1 area percent
same,Area percent of Deg A at twelve weeks,Solution state stability; [11],1.2 area percent
same,Area percent of Deg B at twelve weeks,Solution state stability; [11],0.1 area percent
same,Area percent of Deg E at twelve weeks,Solution state stability; [11],0.0 area percent
same,Area percent of Deg G at twelve weeks,Solution state stability; [11],0.1 area percent
same,Area percent of Deg J at twelve weeks,Solution state stability; [11],0.0 area percent
same,Area percent of Deg A at twelve weeks,Solution state stability; [12],.2 area percent
same,Area percent of Deg B at twelve weeks,Solution state stability; [12],0.1 area percent
same,Area percent of Deg C at twelve weeks,Solution state stability; [12],0.0 area percent
same,Area percent of Deg E at twelve weeks,Solution state stability; [12],0.0 area percent
same,Area percent of Deg G at twelve weeks,Solution state stability; [12],0.1 area percent
same,Area percent of Deg J at twelve weeks,Solution state stability; [12],0.1 area percent
same,Area percent of Deg A at twelve weeks,Solution state stability; [13],1.1 area percent
same,Area percent of Deg B at twelve weeks,Solution state stability; [13],0.1 area percent
same,Area percent of Deg E at twelve weeks,Solution state stability; [13],.1 area percent
same,Area percent of Deg H at twelve weeks,Solution state stability; [13],0.5 area percent
same,degradation after 12 weeks at 40 C,"Solution state stability; condition I in Table 2: pH 6, 40 C, 40 mg/ml drug, 0.05 M buffer",0.3%
